Common to all, as to test: NCI-60 cell line screen, 48 h
Experiment [1] relates to 786-0.
Experiment [2] deals with ACHN.
In experiment [3] the test system is CAKI-1.
Experiment [4] has as its system HCT-116.
Experiment [5] relates to HT-29.
Experiment [6] concerns Hs-578T.
For experiment [7], the system named is K562.
Experiment [8] has as its system MOLT-4.
The test system of experiment [9] is RPMI-8226.
Experiment [10] deals with RXF 393.
Experiment [11] relates to SF-295.
Experiment [12] has as its system SF-539.
Experiment [13] deals with SK-OV-3.
For experiment [14], the system named is SNB-19.
Experiment [15] deals with SNB-75.
The test system of experiment [16] is TK-10.
The test system of experiment [17] is U-251.
Experiment [18] has as its system UO-31.
For experiment [19], the system named is CCRF-CEM.
For experiment [20], the system named is HL-60.

Here are results for 11 molecules from ChEMBL document CHEMBL1201862, “PubChem BioAssay data set” (2004).

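Results reflect a 48-hour exposure of cells in 96-well plates to compound at five concentrations. Here, GI50 denotes the concentration required for 50% inhibition of growth.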 The source made the active and inactive calls. Rule as the data show it: active = GI50 up to about 1.1 µM and inactive = higher.

On to `CCCCn1cnc2c(SC)ncnc21`, for which the GI50 in [1], in [2], in experiment [3], in experiment [4], in experiment [5] and in experiment [6] was > 100 µM (inactive) throughout. In addition, the GI50 is 44.8 µM (inactive) in experiment [7]; 28.4 µM (inactive) in experiment [8]; > 100 µM (inactive) in experiment [9]; > 100 µM (inactive) in [10]; > 100 µM (inactive) in experiment [11]; > 100 µM (inactive) in [12]. Besides, the GI50 in experiment [13], in experiment [14], in experiment [15], in experiment [16], in experiment [17] and in experiment [18] was > 100 µM (inactive) each time.

Consider `CC(C)(C)OC(=O)NC(Cc1ccc(OC(C)(C)C)cc1)C(=O)N[C@H]1CCC[C@H]1C(=O)NC(Cc1ccccc1)C(=O)N1CCCC1C(N)=O` (stereo partly specified), for which the GI50 in experiment [1], in [2], in experiment [3], in experiment [19], in experiment [4] and in experiment [5] was > 100 µM (inactive) throughout. Further, the GI50 was > 100 µM (inactive) in experiment [6]; > 100 µM (inactive) in experiment [7]; > 100 µM (inactive) in experiment [8]; 80.5 µM (inactive) in experiment [9]; > 100 µM (inactive) in [10]; > 100 µM (inactive) in [11]. Moreover, the GI50 in experiment [12], in experiment [13], in [14], in experiment [15], in experiment [16] and in experiment [17] was > 100 µM (inactive) in each case. Moreover, the GI50 in [18] was > 100 µM (inactive).

Regarding `Clc1ccccc1-c1nn2c(CCCCCCCCc3nnc4sc(-c5ccccc5Cl)nn34)nnc2s1`, the GI50 in [1] is > 100 µM (inactive); in experiment [2], > 100 µM (inactive); in experiment [3], > 100 µM (inactive); in [19] it was 61.7 µM (inactive); in [4], > 100 µM (inactive); in [5] it was 52.1 µM (inactive). Also, the GI50 in experiment [6] was > 100 µM (inactive); in [7], > 100 µM (inactive); in [8], 16.5 µM (inactive); in experiment [9] it was 54 µM (inactive); in experiment [10], > 100 µM (inactive); in [11], > 100 µM (inactive). Besides, the GI50 in [12], in [13], in experiment [14], in experiment [15], in [16] and in experiment [17] was > 100 µM (inactive) each time. The GI50 in experiment [18] is > 100 µM (inactive).

For the molecule `CNc1ncnc2c1cnn2Cc1cn(COCC(O)CO)nn1` (stereo unspecified), the GI50 in [1], in [2], in experiment [3], in experiment [19], in experiment [4] and in experiment [20] was > 100 µM (inactive) in each case. Further, the GI50 in [5] is > 100 µM (inactive); in experiment [6] it was 0.149 µM (active); in [9], > 100 µM (inactive); in experiment [11] it was > 100 µM (inactive); in experiment [12] it was > 100 µM (inactive); in [13], > 100 µM (inactive). The GI50 in experiment [14], in experiment [16], in experiment [17] and in experiment [18] was > 100 µM (inactive) throughout.

On to `c1ccc2c(c1)CCc1c-2n(CCN2CCOCC2)c2ccccc12`, for which the GI50 in [1] was > 100 µM (inactive); in experiment [2], > 100 µM (inactive); in experiment [3] it was 22.1 µM (inactive); in experiment [19], 21.2 µM (inactive); in experiment [4], > 100 µM (inactive); in experiment [5], 13.2 µM (inactive). For the same molecule, the GI50 in experiment [6] was 12.8 µM (inactive); in experiment [7], 2.14 µM (inactive); in experiment [8], 29.9 µM (inactive); in [9], 35.2 µM (inactive); in experiment [11], 28.3 µM (inactive); in experiment [12], 37.9 µM (inactive). Moreover, the GI50 in experiment [13] is 26 µM (inactive); in experiment [14], > 100 µM (inactive); in experiment [16] it was > 100 µM (inactive); in [17] it was > 100 µM (inactive); in experiment [18], > 100 µM (inactive).

Regarding `CC(C)(C)OC(=O)NC(C)(C)C(=O)NCCC(=O)O`, the GI50 in experiment [1], in experiment [2], in experiment [3], in experiment [19], in [5] and in [6] was > 100 µM (inactive) in each case. Moreover, the GI50 in [7], in experiment [8], in experiment [9], in experiment [10], in experiment [11] and in experiment [12] was > 100 µM (inactive) each time. Besides, the GI50 was 74.6 µM (inactive) in experiment [13]; > 100 µM (inactive) in [14]; > 100 µM (inactive) in experiment [15]; > 100 µM (inactive) in experiment [16]; > 100 µM (inactive) in [17]; > 100 µM (inactive) in experiment [18].

`O=[N+]([O-])/C(C(Cl)=C(Cl)Cl)=C(\Nc1ccccc1)n1nnc2ccccc21`: the GI50 in [1] is 48.9 µM (inactive); in [2], > 100 µM (inactive); in experiment [3] it was > 100 µM (inactive); in experiment [19] it was 21.4 µM (inactive); in experiment [4], 65.3 µM (inactive); in experiment [5], 44.8 µM (inactive). The GI50 in experiment [6] is 20.6 µM (inactive); in experiment [7], > 100 µM (inactive); in experiment [8], 35.5 µM (inactive); in [9], 21.6 µM (inactive); in experiment [11], 44.7 µM (inactive); in experiment [12], 32.3 µM (inactive). Besides, the GI50 was 71.3 µM (inactive) in experiment [13]; 41.7 µM (inactive) in experiment [14]; > 100 µM (inactive) in experiment [15]; 29.9 µM (inactive) in [17]; 21.9 µM (inactive) in experiment [18].

Regarding `O=C1/C(=C2\Sc3c(ccc(Cl)c3Cl)C2=O)Sc2c1ccc(Cl)c2Cl`, the GI50 in experiment [1], in [2], in experiment [3], in [19], in experiment [4] and in experiment [5] was > 100 µM (inactive) in each case. The GI50 is > 100 µM (inactive) in experiment [6]; > 100 µM (inactive) in [7]; > 100 µM (inactive) in experiment [8]; > 100 µM (inactive) in experiment [9]; 89.1 µM (inactive) in experiment [10]; 33.1 µM (inactive) in [11]. Further, the GI50 is > 100 µM (inactive) in [12]; > 100 µM (inactive) in experiment [14]; 20.3 µM (inactive) in experiment [15]; > 100 µM (inactive) in experiment [16]; > 100 µM (inactive) in experiment [17]; > 100 µM (inactive) in experiment [18].

With `NC1=CC(C(=O)c2ccncc2)c2nc3ccccc3nc21` (stereo unspecified), the GI50 in [1] is > 100 µM (inactive); in [2] it was 59.2 µM (inactive); in experiment [3], 42.2 µM (inactive); in experiment [19], > 100 µM (inactive); in [4], > 100 µM (inactive); in [5], 68.5 µM (inactive). Also, the GI50 in experiment [6] was 57 µM (inactive); in experiment [8], > 100 µM (inactive); in experiment [9], > 100 µM (inactive); in experiment [10] it was > 100 µM (inactive); in experiment [11], 94.4 µM (inactive); in experiment [12], > 100 µM (inactive). Besides, the GI50 is > 100 µM (inactive) in [13]; > 100 µM (inactive) in experiment [14]; 52 µM (inactive) in [15]; > 100 µM (inactive) in [16]; > 100 µM (inactive) in [17]; > 100 µM (inactive) in [18].

In the case of `Cc1cccc(C)c1NC(=O)CCc1nnc2s/c(=C\c3ccc(Cl)cc3)c(=O)n12`, the GI50 was 44 µM (inactive) in experiment [1]; > 100 µM (inactive) in [2]; > 100 µM (inactive) in experiment [3]; > 100 µM (inactive) in experiment [19]; 25.2 µM (inactive) in experiment [4]; > 100 µM (inactive) in experiment [20]. Moreover, the GI50 was > 100 µM (inactive) in [5]; > 100 µM (inactive) in experiment [7]; > 100 µM (inactive) in [8]; 61 µM (inactive) in experiment [9]; 36.8 µM (inactive) in experiment [10]; 70.6 µM (inactive) in [11]. Moreover, the GI50 is 40.6 µM (inactive) in [12]; 31.8 µM (inactive) in [13]; > 100 µM (inactive) in [14]; 73.8 µM (inactive) in experiment [15]; 42.3 µM (inactive) in [16]; 83.9 µM (inactive) in experiment [17]. Also, in experiment [18], the GI50 is > 100 µM (inactive).

Regarding `CC(=O)Oc1ccc(/C=C/C(=O)NCC(NC(=O)/C=C/c2ccc(OC(C)=O)c(OC(C)=O)c2)C(=O)O)cc1OC(C)=O` (stereo unspecified), the GI50 in experiment [1] was > 100 µM (inactive); in experiment [2], > 100 µM (inactive); in experiment [3], > 100 µM (inactive); in experiment [19] it was 32 µM (inactive); in [4], > 100 µM (inactive); in [5] it was 50.8 µM (inactive). Moreover, the GI50 in experiment [6] was > 100 µM (inactive); in experiment [7], 56.2 µM (inactive); in [8] it was 20.1 µM (inactive); in experiment [9], > 100 µM (inactive); in [10], > 100 µM (inactive); in experiment [11], > 100 µM (inactive). The GI50 in experiment [12], in [14], in [16], in experiment [17] and in experiment [18] was > 100 µM (inactive) throughout.
